Results: a melting point compilation (Tetko et al.)

Compound | melting point [°C]
O=C(O)C(O)C(O)C(OC1OC(CO)C(O)C(O)C1O)C(O)CO (configuration not stated) | 113 to 118
CC1=CC(C)N=N1 (configuration not stated) | 108
NCCCC(O)(P(=O)(O)O)P(=O)(O)O | 234
C=CC1CNCCC1CCC(=O)c1ccnc2ccc(OC)cc12 (configuration not stated) | 60
CCCCc1c(C)nc(NCC)nc1O | 160
COC(=O)c1cc(I)cc(C(=O)OC)c1 | 105 to 107
O=[N+]([O-])C=Cc1cccc([N+](=O)[O-])c1 | 126
Cc1ccc(C(=O)O)c(C)c1 | 125
CN1CC[C@@H](c2ccc(F)cc2)[C@H](CO)C1 | 97 to 101
COc1ccc2c(=O)n3ccccc3cc2c1 | 130
CN1CCOCC1 | -65
CN(C)c1ccc(C=C2C(=O)NN=C2c2c(O)c3ccccc3n(C)c2=O)cc1 | 262
COc1cc2c(c(OC)c1OC)-c1ccc(SC)c(=O)cc1C(NC(C)=O)CC2 (configuration not stated) | 193
CCOC(=O)c1cnn(-c2ccccc2)c1N | 99.5
C#CC#C | -36.4
Clc1cc(Cl)c2oc3c(Cl)c(Cl)ccc3c2c1 | 164
CC(=O)C=CC1=C(C)CCCC1(C)C | -49
CC1CCC2C(C)C3C(CC4C5CC=C6CC(O)CCC6(C)C5CCC43C)N2C1 (configuration not stated) | 218
Brc1ccc(Oc2cc(Br)c(Br)cc2Br)c(Br)c1 | 82
COc1ccc(C(C)=NO)cc1OC | 147 to 150
O=c1n(CCO)c(=O)n(CCO)c(=O)n1CCO | 138
COC(=O)c1cncc(C)c1 | 44
O=C1Cc2cc3c(cc21)C(=O)C3 | 207
COP(=O)(OC)c1ccccc1P(=O)(OC)OC | 81
COc1ccc(C(=O)c2ccccc2F)cc1[N+](=O)[O-] | 133 to 139
COc1cc(C=C2CCCC(=Cc3ccc(O)c(OC)c3)C2=O)ccc1O | 178
COc1ccc2ccccc2c1C#N | 94 to 98

Compound | melting point [°C]
Cc1cc(Cl)cc(Cl)c1 | 26
O=C(ON=C(Cc1ccccc1)c1ccccc1)c1ccccc1 | 92
CN(C)c1ccc(N=Nc2ccc(N)cc2)cc1 | 189
N=C1SCCN1CC(=O)c1ccc([N+](=O)[O-])cc1 | 210
NNc1nccc(C(F)(F)F)n1 | 100 to 101
NNc1cc(C(F)(F)F)ccc1Cl | 64 to 68
Nc1nc(O)nc2c1cnn2CCO | 305 to 310
O=C(O)Cc1ccc([N+](=O)[O-])cc1 | 154
Cc1nc(Nc2ncc(C(=O)Nc3c(C)cccc3Cl)s2)cc(N2CCN(CCO)CC2)n1 | 283
CN1CCC(N(Cc2ccccc2)c2ccccc2)CC1 | 114
C=CCCCCCCCCC(=O)OCC | -38
O=c1c2ccccc2[nH]c2ccccc12 | 360 to 362
Nc1ccc(-c2ccccc2N)cc1 | 54.5
CC(=O)c1ccc(O)c(C(F)(F)F)c1 | 176
Cc1cccc(OCC(=O)O)c1 | 104
Cc1cc(Br)cc(C)c1I | 42 to 44
Cc1cc(Cl)ncc1N | 69 to 73
COc1ccc(OC)c(S(N)(=O)=O)c1 | 150 to 152
CCCCCCCC(=O)Oc1c(I)cc(C#N)cc1I | 59.5
CCC1=C(C)C2=CCC=CC2=N1 | 64
O=C1CN=C(c2ccccc2)c2cc(Cl)ccc2N1CC1CC1 | 146
C1CCN(C2CCNCC2)C1 | 52 to 57
Cc1cc(C(F)(F)F)n2nc(N)c(/N=N/c3ccc4ccccc4c3)c2n1 | 246
O=c1ncn2nc(Sc3ccccc3)ccc2c1-c1c(Cl)cccc1Cl | 262 to 265
O=CNC(O)C(Cl)(Cl)Cl (configuration not stated) | 120
COc1cccc(C=C[N+](=O)[O-])c1 | 91 to 93

Now from value to compound:

melting point [°C] | Compound
-9 | FC(F)(I)C(F)(F)C(F)(F)C(F)(F)I
173 to 175 | CC(C)(C)OC(=O)N1CCN(Cc2cccc(C(=O)O)c2)CC1
234 | Cc1ccnc(NS(=O)(=O)c2ccc(N)cc2)n1
178 | c1ccc(Cc2ccc3c4ccccc4c4ccccc4c3c2Cc2ccccc2)cc1
-30.6 | C=C(C)c1ccc(C(C)C)cc1
117 to 121 | NC1c2ccccc2CC1O (configuration not stated)
177 to 181 | NC(=S)Nc1ccc(Cl)cc1
214 | O=C(O)C=Cc1ccc(O)cc1
92 | OC(c1ccc(Cl)cc1)c1ccc(Cl)cc1
52 to 55 | COC(=O)c1cccc(N)c1
53 | N#Cc1cccc(N=C=O)c1
152 to 153 | CSC(S)=NCc1ccc(CN)cc1
-28 | Cc1cccc(Cc2ccccc2)c1
66 | CC(C)(C)C1CCC(O)CC1 (configuration not stated)
246 to 247 | CC(C)(C)c1cc(N=Nc2cc(C(C)(C)C)cc(C(C)(C)C)c2O)c(O)c(C(C)(C)C)c1
78 | CC(C)(C)CC(C)(C)c1ccc(O)c(Cc2ccc(Cl)cc2Cl)c1
15 | COC(=O)C1CC(=O)N(C)C1 (configuration not stated)
148 | Ic1cc(I)c(I)c(I)c1
186 | O=C(Nc1ccc(Br)cc1)C(C(F)(F)F)C(F)(F)F
317 to 318 | Cc1cc(=O)[nH]c(=S)[nH]1

melting point [°C] | Compound
146 | COC(=O)C1(S(=O)(=O)c2ccc(C)cc2)CCCCC1
38 to 40 | CC(=O)c1ccccc1OCc1ccccc1
46 | COc1ccc(F)c(F)c1O
235 | CC(=O)OCC(=O)C1(O)C(OC(C)=O)CC2C3CCC4=CC(=O)C=CC4(C)C3(F)C(O)CC21C (configuration not stated)
63.5 | Clc1ccc2cccc(Cl)c2c1
135 | NS(=O)(=O)c1cc(Cl)ccc1F
94 to 98 | Cn1ccc2c(S(=O)(=O)Cl)cccc21
132 | Nc1ccc2[nH]ccc2c1
267 | Cc1ccc(-n2c(C=Cc3ccc([N+](=O)[O-])cc3)nc3cc([N+](=O)[O-])ccc32)cc1
50 | CCCCCCCCCCCCCC(O)CC (configuration not stated)
111 | Oc1ccccc1N1CCCC1
278 | C=C1C(=O)C23C(OC(C)=O)CC4C(C)(C)CCC(OC(C)=O)C4(C)C2C(OC(C)=O)CC1(O)C3OC(C)=O (configuration not stated)
163 | CC(=O)C=Cc1ccc(C=CC(C)=O)cc1
193 | O=[N+]([O-])c1ccc(/C=N/n2c(S)nnc2C(F)(F)F)cc1
110 | CC(C)(C)OC(=O)C1(S(=O)(=O)c2ccc(Cl)cc2)CC1
222 | CC(C)CCCC(C)C1CCC2C3CC(=O)C4(O)CC(=O)CCC4(C)C3CCC12C (configuration not stated)
303 to 304 | CCc1nc(N)nc(O)c1C
120 | CCOC(=O)c1c(SC)nn(C(=O)Cc2ccccc2)c1N
95 to 99 | N#CCn1cnc(Cl)c1Cl
